The test system of the test is M. tuberculosis. Briefly: Extracellular activity against M. tuberculosis in cholesterol media (Alamar Blue reduction assay). It is filed as cell-based, Mycobacterium tuberculosis. Particulars: Mycobacterium tuberculosis, 240 h, 7H12-Cholesterol media, 10 days; read-out: Cholesterol broth: alamar blue--EC50.
For `Cc1nonc1CC(=O)N1CCC(n2cc(C(=O)NCCO)nn2)CC1` [Compound 150, N-(2-hydroxyethyl)-1-(1-(2-(4-methyl-1,2,5-oxadiazol-3-yl)acetyl)piperidin-4-yl)-1H-1,2,3-triazole-4-carboxamide], the EC50 is over 10000 nM.
Consider `Cc1nonc1CS(=O)(=O)N1CCC(c2nc(-c3ccc(F)cc3)no2)CC1` [Compound 151, 3-(4-fluorophenyl)-5-(1-(((4-methyl-1,2,5-oxadiazol-3-yl)methyl)sulfonyl)piperidin-4-yl)-1,2,4-oxadiazole], for which the EC50 is over 10000 nM.
With `Cc1nonc1NC(=O)N1CCC(c2nc(-c3ccc(F)cc3)no2)CC1` [Compound 152, 4-(3-(4-fluorophenyl)-1,2,4-oxadiazol-5-yl)-N-(4-methyl-1,2,5-oxadiazol-3-yl)piperidine-1-carboxamide], the EC50 was 653 nM.
With `Cn1cnc(CC(=O)N2CCC(c3nc(-c4ccc(Cl)c(Cl)c4)no3)CC2)n1` [Compound 153, 1-(4-(3-(3,4-dichlorophenyl)-1,2,4-oxadiazol-5-yl)piperidin-1-yl)-2-(1-methyl-1H-1,2,4-triazol-3-yl)ethan-1-one], the EC50 was over 10000 nM.
For the compound `Cn1cnc(CC(=O)N2CCC(c3nc(-c4ccc(F)cc4)no3)CC2)n1` [Compound 154, 1-(4-(3-(4-fluorophenyl)-1,2,4-oxadiazol-5-yl)piperidin-1-yl)-2-(1-methyl-1H-1,2,4-triazol-3-yl)ethan-1-one], the EC50 is over 10000 nM.
Turning to `Cn1cnnc1CC(=O)N1CCC(c2nc(-c3ccc(F)cc3)no2)CC1` [Compound 155, 1-(4-(3-(4-fluorophenyl)-1,2,4-oxadiazol-5-yl)piperidin-1-yl)-2-(4-methyl-4H-1,2,4-triazol-3-yl)ethan-1-one], the EC50 was over 10000 nM.
Consider `Cn1cnnc1CC(=O)N1CCC(n2nnc(-c3ccc(F)cc3)n2)CC1` [Compound 156, 1-(4-(5-(4-fluorophenyl)-2H-tetrazol-2-yl)piperidin-1-yl)-2-(4-methyl-4H-1,2,4-triazol-3-yl)ethan-1-one], for which the EC50 was over 10000 nM.
For `Cn1ncnc1CC(=O)N1CCC(c2nc(C3CC4CCC3C4)no2)CC1` (stereo not drawn) [Compound 157, 1-(4-(3-(bicyclo[2.2.1]heptan-2-yl)-1,2,4-oxadiazol-5-yl)piperidin-1-yl)-2-(1-methyl-1H-1,2,4-triazol-5-yl)ethan-1-one], the EC50 came out at 1860 nM.
Under `Cn1ncnc1CC(=O)N1CCC(c2nc([C@@H]3CC[C@@](C)(F)C3)no2)CC1` [Compound 158, 1-(4-(3-((1R,3R)-3-fluoro-3-methylcyclopentyl)-1,2,4-oxadiazol-5-yl)piperidin-1-yl)-2-(1-methyl-1H-1,2,4-triazol-5-yl)ethan-1-one] stands over 10000 nM.
As to `Cn1ncnc1CC(=O)N1CCC(c2nc([C@@H]3CC[C@](C)(F)C3)no2)CC1` [Compound 159, 1-(4-(3-((1R,3S)-3-fluoro-3-methylcyclopentyl)-1,2,4-oxadiazol-5-yl)piperidin-1-yl)-2-(1-methyl-1H-1,2,4-triazol-5-yl)ethan-1-one], the EC50 was over 10000 nM.
Regarding `Cn1ncnc1CC(=O)N1CCC(c2nc(C3CCC(C)(F)CC3)no2)CC1` (stereo not drawn) [Compound 160, 1-(4-(3-(4-fluoro-4-methylcyclohexyl)-1,2,4-oxadiazol-5-yl)piperidin-1-yl)-2-(1-methyl-1H-1,2,4-triazol-5-yl)ethan-1-one], the EC50 was over 10000 nM.
`Cn1ncnc1CC(=O)N1CCC(c2noc(C34CC(C)(C3)C4)n2)CC1` [Compound 161, 2-(1-methyl-1H-1,2,4-triazol-5-yl)-1-(4-(5-(3-methylbicyclo[1.1.1]pentan-1-yl)-1,2,4-oxadiazol-3-yl)piperidin-1-yl)ethan-1-one]: the EC50 was over 10000 nM.
Under `Cn1ncnc1CC(=O)N1CCC(c2nc(C34CC(C)(C3)C4)no2)CC1` [Compound 162, 2-(1-methyl-1H-1,2,4-triazol-5-yl)-1-(4-(3-(3-methylbicyclo[1.1.1]pentan-1-yl)-1,2,4-oxadiazol-5-yl)piperidin-1-yl)ethan-1-one] stands over 10000 nM; under `Cn1ncnc1CC(=O)N1CCC(c2nc(-c3ccc(Cl)cc3Cl)no2)CC1` [Compound 163, 1-(4-(3-(2,4-dichlorophenyl)-1,2,4-oxadiazol-5-yl)piperidin-1-yl)-2-(1-methyl-1H-1,2,4-triazol-5-yl)ethan-1-one], 200 nM; under `Cn1ncnc1CC(=O)N1CCC(c2nc(-c3ccc(Cl)c(Cl)c3)no2)CC1` [Compound 164, 1-(4-(3-(3,4-dichlorophenyl)-1,2,4-oxadiazol-5-yl)piperidin-1-yl)-2-(1-methyl-1H-1,2,4-triazol-5-yl)ethan-1-one], 64.7 nM.
With `Cn1ncnc1CC(=O)N1CCC(n2nnc(-c3ccc(Cl)c(Cl)c3)n2)CC1` [Compound 165, 1-(4-(5-(3,4-dichlorophenyl)-2H-tetrazol-2-yl)piperidin-1-yl)-2-(1-methyl-1H-1,2,4-triazol-5-yl)ethan-1-one], the EC50 came to 100 nM.
For the compound `Cn1ncnc1CC(=O)N1CCC(c2noc(-c3ccc(Cl)c(Cl)c3)n2)CC1` [Compound 166, 1-(4-(5-(3,4-dichlorophenyl)-1,2,4-oxadiazol-3-yl)piperidin-1-yl)-2-(1-methyl-1H-1,2,4-triazol-5-yl)ethan-1-one], the EC50 amounted to 710 nM.
For the compound `Cn1ncnc1CC(=O)N1CCC(c2nc(-c3ccc(Cl)cc3)no2)CC1` [Compound 167, 1-(4-(3-(4-chlorophenyl)-1,2,4-oxadiazol-5-yl)piperidin-1-yl)-2-(1-methyl-1H-1,2,4-triazol-5-yl)ethan-1-one], the EC50 was determined as 221 nM.
Consider `Cn1ncnc1CC(=O)N1CCC(n2nnc(-c3ccc(Cl)cc3)n2)CC1` [Compound 168, 1-(4-(5-(4-chlorophenyl)-2H-tetrazol-2-yl)piperidin-1-yl)-2-(1-methyl-1H-1,2,4-triazol-5-yl)ethan-1-one], for which the EC50 turned out to be 472 nM.
Turning to `Cn1ncnc1CC(=O)N1CCC(c2nc(-c3ccc(Cl)c(OC(F)(F)F)c3)no2)CC1` [Compound 169, 1-(4-(3-(4-chloro-3-(trifluoromethoxy)phenyl)-1,2,4-oxadiazol-5-yl)piperidin-1-yl)-2-(1-methyl-1H-1,2,4-triazol-5-yl)ethan-1-one], the EC50 amounted to 330 nM.
In the case of `Cn1ncnc1CC(=O)N1CCC(c2nc(-c3ccc(OC(F)(F)F)cc3)no2)CC1` [Compound 170, 2-(1-methyl-1H-1,2,4-triazol-5-yl)-1-(4-(3-(4-(trifluoromethoxy)phenyl)-1,2,4-oxadiazol-5-yl)piperidin-1-yl)ethan-1-one], the EC50 was found to be 130 nM.
In the case of `Cn1ncnc1CC(=O)N1CCC(n2nnc(-c3ccc(C(F)(F)F)cc3)n2)CC1` [Compound 171, 2-(1-methyl-1H-1,2,4-triazol-5-yl)-1-(4-(5-(4-(trifluoromethyl)phenyl)-2H-tetrazol-2-yl)piperidin-1-yl)ethan-1-one], the EC50 is 963 nM.
For the compound `Cn1ncnc1CC(=O)N1CCC(c2nc(-c3ccc(C(F)F)cc3)no2)CC1` [Compound 172, 1-(4-(3-(4-(difluoromethyl)phenyl)-1,2,4-oxadiazol-5-yl)piperidin-1-yl)-2-(1-methyl-1H-1,2,4-triazol-5-yl)ethan-1-one], the EC50 turned out to be 2070 nM.
Turning to `Cn1ncnc1CC(=O)N1CCC(c2noc(C34CC(F)(C3)C4)n2)CC1` [Compound 173, 1-(4-(5-(3-fluorobicyclo[1.1.1]pentan-1-yl)-1,2,4-oxadiazol-3-yl)piperidin-1-yl)-2-(1-methyl-1H-1,2,4-triazol-5-yl)ethan-1-one], the EC50 is over 10000 nM.
Regarding `Cn1ncnc1CC(=O)N1CCC(c2nc(-c3ccc(CF)cc3)no2)CC1` [Compound 174, 1-(4-(3-(4-(fluoromethyl)phenyl)-1,2,4-oxadiazol-5-yl)piperidin-1-yl)-2-(1-methyl-1H-1,2,4-triazol-5-yl)ethan-1-one], the EC50 stood at 2260 nM.
`Cn1ncnc1CC(=O)N1CCC(c2nc(-c3ccc(S(F)(F)(F)(F)F)cc3)no2)CC1` [Compound 175, 2-(1-methyl-1H-1,2,4-triazol-5-yl)-1-(4-(3-(4-(pentafluoro-16-sulfaneyl)phenyl)-1,2,4-oxadiazol-5-yl)piperidin-1-yl)ethan-1-one]: the EC50 amounted to 1630 nM.
On to `Cn1ncnc1CC(=O)N1CCC(c2nc(-c3ccc(Cl)c(F)c3)no2)CC1` [Compound 176, 1-(4-(3-(4-chloro-3-fluorophenyl)-1,2,4-oxadiazol-5-yl)piperidin-1-yl)-2-(1-methyl-1H-1,2,4-triazol-5-yl)ethan-1-one], for which the EC50 was 115 nM.
With `Cn1ncnc1CC(=O)N1CCC(n2nnc(-c3ccc(Cl)c(F)c3)n2)CC1` [Compound 177, 1-(4-(5-(4-chloro-3-fluorophenyl)-2H-tetrazol-2-yl)piperidin-1-yl)-2-(1-methyl-1H-1,2,4-triazol-5-yl)ethan-1-one], the 50% effective concentration (EC50) was determined as 170 nM.
Under `Cn1ncnc1CC(=O)N1CCC(c2nc(-c3ccc(Cl)cc3F)no2)CC1` [Compound 178, 1-(4-(3-(4-chloro-2-fluorophenyl)-1,2,4-oxadiazol-5-yl)piperidin-1-yl)-2-(1-methyl-1H-1,2,4-triazol-5-yl)ethan-1-one] stands 200 nM; under `Cn1ncnc1CC(=O)N1CCC(c2nc(-c3ccc(F)cc3Cl)no2)CC1` [Compound 179, 1-(4-(3-(2-chloro-4-fluorophenyl)-1,2,4-oxadiazol-5-yl)piperidin-1-yl)-2-(1-methyl-1H-1,2,4-triazol-5-yl)ethan-1-one], 1970 nM; under `Cn1ncnc1CC(=O)N1CCC(c2nc(-c3ccc(F)cc3F)no2)CC1` [Compound 180, 1-(4-(3-(2,4-difluorophenyl)-1,2,4-oxadiazol-5-yl)piperidin-1-yl)-2-(1-methyl-1H-1,2,4-triazol-5-yl)ethan-1-one], 480 nM.
As to `Cn1ncnc1CC(=O)N1CCC(c2nc(-c3ccc(F)c(C(F)(F)F)c3)no2)CC1` [Compound 181], the EC50 was 467 nM.
Under `Cn1ncnc1CC(=O)N1CCC(n2nnc(-c3ccc(F)c(Cl)c3)n2)CC1` [Compound 182, 1-(4-(5-(3-chloro-4-fluorophenyl)-2H-tetrazol-2-yl)piperidin-1-yl)-2-(1-methyl-1H-1,2,4-triazol-5-yl)ethan-1-one] stands 370 nM.

Source of the values: patent publication US20260048047A1, “SMALL-MOLECULE ACTIVATORS OF MYCOBACTERIUM TUBERCULOSIS ADENYLYL CYCLASE” (priority 2022, published 2026).
